Values after ≈ are worked out from the molar mass of the structure shown. Like-named read-outs stand apart in the source and are kept apart here.
Assays:
[1] = tested on: SPF ICR mouse; conditions: clinically used comparison drugs, not among the test compounds of b552; species and route not given; cited from earlier work
[2] = tested on: A549 (lung cancer) cell line; assay: Anti-cancer activity in vitro, A549 cell line; type: cell-based
Protocol: (§1) The anti-cancer activity and toxicity of the compound according to the present invention were evaluated in vitro using A549 (lung cancer), SUN638 (gastric cancer), HCT116 (rectal cancer), and A431 (ovarian cancer) cell lines. The above four (4) cell lines were purchased from Cancer Research Institute, Seoul National University College of Medicine. […] The experiment was basically carried out according to the process described in Monks, A., et al, Journal of National Cancer Institute. 83: 757-766 (1991) and the results are represented in the following Tables 2 and 3.

[3] = tested on: SPF ICR mouse; assay: Acute toxicity test, single oral administration; type: in vivo; conditions: single administration per oral, 7-day observation
Protocol: (§2) (1) Test Animal: SPF ICR mouse
(§3) (2) Age of the Test Animal: 4 weeks from acquisition 5 weeks from the start of administration
(§4) (3) Gender and Number of Test Animal: respective 18 he and she-mice (6 groups in each of he and she-mice, 3 mice per group)
(§5) (4) Breeding Environment: Temperature 22±3° C., Relative humidity […], Illumination 150-300 Lux
(§6) (5) Method of Administration: Single administration per oral
(§7) (6) Items to be Observed: General symptoms, appearance, weight and autopsy of dead mice
(§8) (8) Medium: 0.5% Tween 80

[4] = tested on: HCT116 (rectal cancer) cell line; assay: Anti-cancer activity in vitro, HCT116 cell line; type: cell-based
Protocol: as §1

[5] = tested on: SUN638 (gastric cancer) cell line; assay: Anti-cancer activity in vitro, SUN638 cell line; type: cell-based
Protocol: as §1

[6] = Acute toxicity test, single oral administration; type: in vivo; conditions: mouse, in vivo, single administration per oral, 7-day observation
Protocol: as §2, §3, §4, §5, §6, §7, §8

[7] = tested on: A431 cell line; assay: Anti-cancer activity in vitro, A431 cell line; type: cell-based; conditions: Homo sapiens, A-431, read-out: LC50
Protocol: as §1

[8] = tested on: A431 (ovarian cancer) cell line; assay: Anti-cancer activity in vitro, A431 cell line; type: cell-based
Protocol: as §1

[9] = Homo sapiens, A549, read-out: LC50
[10] = both sexes, male and female ICR mice
[11] = Homo sapiens, HCT-116, read-out: LC50
[12] = Homo sapiens, A549 Cell Line, read-out: GI50
[13] = Homo sapiens, HCT-116, HCT116 Cell Line, read-out: GI50
[14] = Homo sapiens, A-431, A431 Cell Line, read-out: GI50
[15] = SUN638 Cell Line, read-out: GI50

N.N.O=C([O-])C1(C(=O)[O-])CCC1.[Pt+2] [Carboplatin]
LD50 [1]: 150 mg/kg

COc1cc2c(cc1OC)C(c1ccc(F)cc1)CN(C(=O)n1ccnc1)CC2 (stereo not shown) [Compound 70, 3-[(1H-imidazol-1-yl)carbonyl]-7,8-dimethoxy-1-(4-fluoro)phenyl-2,3,4,5-tetrahydro-3H-benzazepine]
GI50 ([2]; A549 Cell Line): 1.12 µg/mL (≈ 2.83 µM)
LC50 ([2]; A549 Cell Line): >100 µg/mL
TGI50 ([2]; A549 Cell Line): 100 µg/mL
LD50 ([3]; male and female ICR mice): 2000 (male and female) mg/kg
GI50 ([4]; HCT116 Cell Line): 1.31 µg/mL (≈ 3.31 µM)
LC50 ([4]; HCT116 Cell Line): >100 µg/mL
TGI50 ([4]; HCT116 Cell Line): 23.98 µg/mL
GI50 ([5]; SUN638 Cell Line): 1.78 µg/mL (≈ 4.5 µM)
LC50 ([5]; SUN638 Cell Line): >100 µg/mL
TGI50 ([5]; SUN638 Cell Line): 7.24 µg/mL

COc1cccc2c1C(=O)c1c(O)c3c(c(O)c1C2=O)C[C@@](O)(C(=O)CO)C[C@@H]3O[C@H]1C[C@H](N)[C@H](O)[C@H](C)O1 [Doxorubicin]
LD50 [1]: 21.1 mg/kg

COc1cc2c(cc1OC)C(c1ccccc1)CN(C(=O)Nc1nc3ccccc3nc1OC)CC2 (stereo not shown) [Compound 2, 3-[N-(2-methoxyquinoxalin-3-yl)aminocarbonyl]-7,8-dimethoxy-1-phenyl-2,3,4,5-tetrahydro-3H-benzazepine]
LD50 ([3]; male and female ICR mice): 2000 (male and female) mg/kg

Cc1cc(C)cc(N2CCN(C(=O)n3ccnc3)CC2)c1.Cl [Compound 57, 1-[(1H-imidazol-1-yl)carbonyl]-4-(3,5-dimethylphenyl)piperazine hydrochloride]
GI50 ([2]; Homo sapiens, A549): 1.77 µg/mL
LC50 [2, 9]: > 100 µg/mL
LD50 at 7 day [6, 10]: 1160 mg/kg
GI50 ([4]; Homo sapiens, HCT-116): 1.34 µg/mL
LC50 [4, 11]: > 100 µg/mL
LC50 [7]: > 100 µg/mL
TGI50 ([8]; A431 Cell Line): 8.31 µg/mL
GI50 ([8]; Homo sapiens, A-431): 1.51 µg/mL
GI50 [5]: 1.69 µg/mL
LC50 ([5]; read-out: LC50): > 100 µg/mL

COc1cc2c(cc1OC)C(c1ccccc1)CN(C(=O)n1ccnc1)CC2 (stereo not shown) [Compound 66, 3-[(1H-imidazol-1-yl)carbonyl]-7,8-dimethoxy-1-phenyl-2,3,4,5-tetrahydro-3H-benzazepine]
GI50 ([2]; A549 Cell Line): 0.38 µg/mL (≈ 1.01 µM)
LC50 ([2]; A549 Cell Line): >100 µg/mL
TGI50 ([2]; A549 Cell Line): 54.95 µg/mL
LD50 ([3]; female ICR mice): 2000 (female) mg/kg
LD50 ([3]; male ICR mice): 1921 (male) mg/kg
GI50 ([4]; HCT116 Cell Line): 0.19 µg/mL (≈ 0.503 µM)
LC50 ([4]; HCT116 Cell Line): >100 µg/mL
TGI50 ([4]; HCT116 Cell Line): 7.76 µg/mL
GI50 ([8]; A431 Cell Line): 0.28 µg/mL (≈ 0.742 µM)
LC50 ([8]; A431 Cell Line): >100 µg/mL
TGI50 ([8]; A431 Cell Line): 100 µg/mL
GI50 ([5]; SUN638 Cell Line): 0.21 µg/mL (≈ 0.556 µM)
LC50 ([5]; SUN638 Cell Line): >100 µg/mL
TGI50 ([5]; SUN638 Cell Line): 1.73 µg/mL

COc1nc2ccccc2nc1NC(=O)N1CCN(C(c2ccccc2)c2ccccc2)CC1 [Compound 48, 1-[N-(2-methoxyquinoxalin-3-yl)aminocarbonyl]-4-(diphenylmethyl)piperazine]
LC50 [2, 9]: > 100 µg/mL
GI50 [2, 12]: 1.07 µg/mL (≈ 2.36 µM)
LC50 [4, 11]: > 100 µg/mL
GI50 [4, 13]: 0.67 µg/mL (≈ 1.48 µM)
LC50 [7]: > 100 µg/mL
TGI50 ([8]; A431 Cell Line): 100 µg/mL
GI50 [8, 14]: 1.65 µg/mL (≈ 3.64 µM)
GI50 [5, 15]: 1.62 µg/mL (≈ 3.57 µM)
LC50 ([5]; read-out: LC50): > 100 µg/mL

C=CCN(CC=C)c1nc(N(CC=C)CC=C)nc(N2CCN(C(=O)n3ccnc3)CC2)n1 [Compound 61, 1-[(1H-imidazol-1-yl)carbonyl]-4-(4,6-bis-diallylamino-[1,3,5]triazin-2-yl)piperazine]
GI50 ([2]; Homo sapiens, A549): 6.02 µg/mL (≈ 13.4 µM)
LC50 [2, 9]: > 100 µg/mL
LD50 at 7 day ([6]; female ICR mice): 1140 mg/kg
LD50 at 7 day ([6]; male ICR mice): 2330 mg/kg
GI50 [5]: 2.95 µg/mL (≈ 6.56 µM)
LC50 ([5]; read-out: LC50): > 100 µg/mL

Cc1cc(C)cc(N2CCN(C(=O)n3ccnc3)CC2)c1 [Compound 55, 1-[(1H-imidazol-1-yl)carbonyl]-4-(3,5-dimethylphenyl)piperazine]
GI50 ([2]; Homo sapiens, A549): 1.77 µg/mL (≈ 6.22 µM)
LC50 [2, 9]: > 100 µg/mL
GI50 ([4]; Homo sapiens, HCT-116): 2.08 µg/mL (≈ 7.31 µM)
LC50 [4, 11]: > 100 µg/mL
LC50 [7]: > 100 µg/mL
TGI50 ([8]; A431 Cell Line): 67.60 µg/mL
GI50 ([8]; Homo sapiens, A-431): 1.38 µg/mL (≈ 4.85 µM)
GI50 [5]: 1.09 µg/mL (≈ 3.83 µM)
LC50 ([5]; read-out: LC50): > 100 µg/mL

COc1cc2c(cc1OC)[C@H](c1ccccc1)CN(C(=O)Nc1nc3ccccc3nc1OC)CC2 [Compound 3, 3-[N-(2-methoxyquinoxalin-3-yl)aminocarbonyl]-(S)-7,8-dimethoxy-1-phenyl-2,3,4,5-tetrahydro-3H-benzazepine]
GI50 ([2]; A549 Cell Line): 1.31 µg/mL (≈ 2.7 µM)
LC50 ([2]; A549 Cell Line): >100 µg/mL
TGI50 ([2]; A549 Cell Line): 5.62 µg/mL
GI50 ([4]; HCT116 Cell Line): 1.31 µg/mL (≈ 2.7 µM)
LC50 ([4]; HCT116 Cell Line): >100 µg/mL
TGI50 ([4]; HCT116 Cell Line): 5.62 µg/mL
GI50 ([8]; A431 Cell Line): 2.04 µg/mL (≈ 4.21 µM)
LC50 ([8]; A431 Cell Line): >100 µg/mL
TGI50 ([8]; A431 Cell Line): 26.30 µg/mL
GI50 ([5]; SUN638 Cell Line): 1.47 µg/mL (≈ 3.03 µM)
LC50 ([5]; SUN638 Cell Line): >100 µg/mL
TGI50 ([5]; SUN638 Cell Line): 9.33 µg/mL

O=C(N1CCN(c2nc(NCC3CC3)nc(NCC3CC3)n2)CC1)n1ccnc1 [Compound 62, 1-[(1H-imidazol-1-yl)carbonyl]-4-(4,6-bis-cyclopropylmethylamino-[1,3,5]triazin-2-yl)piperazine]
GI50 ([2]; Homo sapiens, A549): 0.48 µg/mL (≈ 1.21 µM)
LC50 [2, 9]: > 100 µg/mL
LD50 at 7 day ([6]; female ICR mice): 466 mg/kg
LD50 at 7 day ([6]; male ICR mice): 354 mg/kg
GI50 ([4]; Homo sapiens, HCT-116): 0.38 µg/mL (≈ 0.956 µM)
LC50 [4, 11]: > 100 µg/mL
GI50 [5]: 0.61 µg/mL (≈ 1.53 µM)
LC50 ([5]; read-out: LC50): > 100 µg/mL

Cc1cc(C)cc(N2CCN(C(=S)n3ccnc3)CC2)c1 [Compound 56, 1-[(1H-imidazol-1-yl)thiocarbonyl]-4-(3,5-dimethylphenyl) piperazine]
LC50 [2, 9]: > 100 µg/mL
GI50 [2, 12]: 2.04 µg/mL (≈ 6.79 µM)
LC50 [4, 11]: > 100 µg/mL
GI50 [4, 13]: 1.47 µg/mL (≈ 4.89 µM)
LC50 [7]: > 100 µg/mL
TGI50 ([8]; A431 Cell Line): 28.84 µg/mL
GI50 [8, 14]: 1.31 µg/mL (≈ 4.36 µM)
GI50 [5, 15]: 1.34 µg/mL (≈ 4.46 µM)
LC50 ([5]; read-out: LC50): > 100 µg/mL

C=CCNc1nc(NCC=C)nc(N2CCN(C(=O)NC(c3ccccc3)c3ccccc3)CC2)n1 [Compound 38, 1-[(diphenylmethyl)aminocarbonyl]-4-(4,6-bis-allylamino-[1,3,5]triazin-2-yl)piperazine]
LC50 [2, 9]: > 100 µg/mL
GI50 [2, 12]: 1.28 µg/mL (≈ 2.64 µM)
LD50 at 7 day [6, 10]: 2000 mg/kg
LC50 [4, 11]: > 100 µg/mL
GI50 [4, 13]: 1.28 µg/mL (≈ 2.64 µM)
LC50 [7]: > 100 µg/mL
TGI50 ([8]; A431 Cell Line): 7.24 µg/mL
GI50 [8, 14]: 1.41 µg/mL (≈ 2.91 µM)
GI50 [5, 15]: 2.75 µg/mL (≈ 5.67 µM)
LC50 ([5]; read-out: LC50): > 100 µg/mL

Reference: US20020019389A1, “Urea derivative useful as an anti-cancer agent and process for preparing same” (priority 2000, published 2002)
